From patent US9695155B2, “Herbicidal substituted pyrimidinyloxy benzene compounds” (E. I. DU PONT DE NEMOURS AND COMPANY, priority 2013, dated 2017)

Key:
[1] = system: arrowleaf sida; experiment: Test E preemergence; assay type: in vivo, Sida rhombifolia; settings: for Arrowleaf Sida plant response rating: scale 0 to 100 (0 no effect, 100 complete control); for Plant response rating, Arrowleaf Sida: scale 0 to 100, 0 no effect, 100 complete control
Method in brief: (§1)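 Test chemicals formulated in a non-phytotoxic solvent mixture containing a surfactant were applied preemergence to seeds in silt loam soil or postemergence to plants at the 1- to 4-leaf stage in potting mix. After 14 to 21 days in a greenhouse, injury was visually rated against controls on a 0-100 scale (0 = no effect, 100 = complete control).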

[2] = system: galium; experiment: Test A postemergence; assay type: in vivo, Galium aparine
Method in brief: (§2)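 Scoring: eye-based comparison with untreated controls, 0 for no effect through 100 for complete control, at about day 10. Treatments: directed soil spray preemergence; foliar spray postemergence on 2–10 cm plants at the one- to two-leaf stage. Medium: loam soil with sand.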

[3] = system: ragweed; experiment: Test E preemergence; assay type: in vivo, Ambrosia elatior; settings: for Ragweed plant response rating: scale 0 to 100 (0 no effect, 100 complete control); for Plant response rating, Ragweed: 125 g ai/ha, scale 0 to 100, 0 no effect, 100 complete control
Method in brief: as §1

[4] = system: goosegrass; experiment: Test E preemergence; assay type: in vivo, Eleusine indica; settings: for Goosegrass plant response rating: scale 0 to 100 (0 no effect, 100 complete control); for Plant response rating, Goosegrass: 125 g ai/ha, scale 0 to 100, 0 no effect, 100 complete control
Method in brief: as §1

[5] = system: Italian ryegrass; experiment: Test E preemergence; assay type: in vivo, Lolium multiflorum; settings: for Ryegrass, Italian plant response rating: scale 0 to 100 (0 no effect, 100 complete control); for Plant response rating, Ryegrass, Italian: 125 g ai/ha, scale 0 to 100, 0 no effect, 100 complete control
Method in brief: as §1

[6] = system: johnsongrass; experiment: Test E preemergence; assay type: in vivo, Sorghum halepense; settings: for Johnsongrass plant response rating: scale 0 to 100 (0 no effect, 100 complete control); for Plant response rating, Johnsongrass: 125 g ai/ha, scale 0 to 100, 0 no effect, 100 complete control
Method in brief: as §1

[7] = system: Italian ryegrass; experiment: Test A preemergence; assay type: in vivo, Lolium multiflorum; settings: for Plant response rating, Ryegrass, Italian: 0 to 100 scale where 0 is no effect and 100 is complete control; for Ryegrass, Italian plant response rating: 500 g ai/ha, 0 to 100 scale, 0 no effect, 100 complete control, approx. 10 days
Method in brief: as §2

[8] = system: dayflower; experiment: Test E preemergence; assay type: in vivo, Commelina virginica; settings: for Dayflower, VA plant response rating: scale 0 to 100 (0 no effect, 100 complete control); for Plant response rating, Dayflower, VA: 125 g ai/ha, scale 0 to 100, 0 no effect, 100 complete control
Method in brief: as §1

[9] = system: soybean; experiment: Test E preemergence; assay type: in vivo, Glycine max; settings: for Soybean plant response rating: scale 0 to 100 (0 no effect, 100 complete control); for Plant response rating, Soybean: 125 g ai/ha, scale 0 to 100, 0 no effect, 100 complete control
Method in brief: as §1

[10] = system: fall panicum; experiment: Test E preemergence; assay type: in vivo, Panicum dichotomiflorum; settings: for Panicum, Fall plant response rating: scale 0 to 100 (0 no effect, 100 complete control); for Plant response rating, Panicum, Fall: 125 g ai/ha, scale 0 to 100, 0 no effect, 100 complete control
Method in brief: as §1

[11] = system: palmer pigweed; experiment: Test E preemergence; assay type: in vivo, Amaranthus palmeri; settings: for Pigweed, Palmer plant response rating: scale 0 to 100 (0 no effect, 100 complete control); for Plant response rating, Pigweed, Palmer: 125 g ai/ha, scale 0 to 100, 0 no effect, 100 complete control
Method in brief: as §1

[12] = system: morningglory; experiment: Test E preemergence; assay type: in vivo, Ipomoea coccinea; settings: for Morningglory plant response rating: scale 0 to 100 (0 no effect, 100 complete control); for Plant response rating, Morningglory: 125 g ai/ha, scale 0 to 100, 0 no effect, 100 complete control
Method in brief: as §1

[13] = system: barnyardgrass; experiment: Test E preemergence; assay type: in vivo, Echinochloa crus-galli; settings: for Barnyardgrass plant response rating: scale 0 to 100 (0 no effect, 100 complete control); for Plant response rating, Barnyardgrass: scale 0 to 100, 0 no effect, 100 complete control
Method in brief: as §1

[14] = 125 g ai/ha, 0 to 100 scale where 0 is no effect and 100 is complete control
[15] = 500 g ai/ha, 0 to 100 scale where 0 is no effect and 100 is complete control

FCc1cccc(Oc2ncc(Cl)cn2)c1-n1cc(Cl)cn1 [Compound 250]
60: Arrowleaf Sida plant response rating ([1]; 62 g ai/ha, preemergence) | Plant response rating, Galium ([2]; 125 g ai/ha, 0 to 100 scale, 0 no effect, 100 complete control)
25: Plant response rating, Barnyardgrass ([13]; preemergence, 125 g ai/ha)
20: Arrowleaf Sida plant response rating ([1]; 31 g ai/ha, preemergence) | Plant response rating, Morningglory [12]
15: Soybean plant response rating ([9]; 62 g ai/ha)
70: Plant response rating, Dayflower, VA [8]
100: Plant response rating, Arrowleaf Sida ([1]; preemergence, 125 g ai/ha) | Plant response rating, Panicum, Fall [10] | Plant response rating, Pigweed, Palmer [11]
50: Plant response rating, Johnsongrass [6] | Dayflower, VA plant response rating ([8]; 62 g ai/ha)
65: Plant response rating, Goosegrass [4] | Plant response rating, Soybean [9]
0: Arrowleaf Sida plant response rating ([1]; 16 g ai/ha, preemergence) | Ragweed plant response rating ([3]; 31 g ai/ha) | Ragweed plant response rating ([3]; 62 g ai/ha) | Plant response rating, Ragweed [3] | Goosegrass plant response rating ([4]; 31 g ai/ha) | Goosegrass plant response rating ([4]; 62 g ai/ha) | Ryegrass, Italian plant response rating ([5]; 31 g ai/ha) | Ryegrass, Italian plant response rating ([5]; 62 g ai/ha) | Plant response rating, Ryegrass, Italian [5] | Johnsongrass plant response rating ([6]; 31 g ai/ha) | Johnsongrass plant response rating ([6]; 62 g ai/ha) | Plant response rating, Ryegrass, Italian ([7]; 31 g ai/ha, visual, approximately 10 days) | Ryegrass, Italian plant response rating (0 to 100 scale) ([7]; 125 g ai/ha) | Dayflower, VA plant response rating ([8]; 16 g ai/ha) | Dayflower, VA plant response rating ([8]; 31 g ai/ha) | Soybean plant response rating ([9]; 31 g ai/ha) | Panicum, Fall plant response rating ([10]; 31 g ai/ha) | Panicum, Fall plant response rating ([10]; 62 g ai/ha) | Pigweed, Palmer plant response rating ([11]; 31 g ai/ha) | Pigweed, Palmer plant response rating ([11]; 62 g ai/ha) | Morningglory plant response rating ([12]; 31 g ai/ha) | Morningglory plant response rating ([12]; 62 g ai/ha) | Barnyardgrass plant response rating ([13]; 16 g ai/ha, preemergence) | Barnyardgrass plant response rating ([13]; 31 g ai/ha, preemergence) | Barnyardgrass plant response rating ([13]; 62 g ai/ha, preemergence)
10: Plant response rating, Galium ([2]; 31 g ai/ha, 0 to 100 scale, 0 no effect, 100 complete control)

N#Cc1cccc(Oc2ncc(Br)cn2)c1-n1cc(I)cn1 [Compound 88]
65: Plant response rating, Ragweed [3]
35: Plant response rating, Arrowleaf Sida ([1]; preemergence, 125 g ai/ha) | Soybean plant response rating ([9]; 16 g ai/ha)
60: Plant response rating, Dayflower, VA [8]
15: Johnsongrass plant response rating ([6]; 62 g ai/ha) | Plant response rating, Johnsongrass [6] | Plant response rating, Morningglory [12]
30: Arrowleaf Sida plant response rating ([1]; 16 g ai/ha, preemergence) | Ryegrass, Italian plant response rating [7]
5: Goosegrass plant response rating ([4]; 62 g ai/ha) | Plant response rating, Goosegrass [4]
100: Plant response rating, Galium [2, 14] | Plant response rating, Galium [2, 15]
10: Plant response rating, Arrowleaf Sida ([1]; Preemergence, 62 g ai/ha) | Plant response rating, Panicum, Fall [10] | Morningglory plant response rating ([12]; 62 g ai/ha)
20: Plant response rating, Ryegrass, Italian ([7]; 125 g ai/ha) | Soybean plant response rating ([9]; 62 g ai/ha) | Plant response rating, Soybean [9]
40: Arrowleaf Sida plant response rating ([1]; 31 g ai/ha, preemergence)
75: Plant response rating, Pigweed, Palmer [11]
0: Ragweed plant response rating ([3]; 16 g ai/ha) | Ragweed plant response rating ([3]; 31 g ai/ha) | Ragweed plant response rating ([3]; 62 g ai/ha) | Goosegrass plant response rating ([4]; 16 g ai/ha) | Goosegrass plant response rating ([4]; 31 g ai/ha) | Ryegrass, Italian plant response rating ([5]; 16 g ai/ha) | Ryegrass, Italian plant response rating ([5]; 31 g ai/ha) | Ryegrass, Italian plant response rating ([5]; 62 g ai/ha) | Plant response rating, Ryegrass, Italian [5] | Johnsongrass plant response rating ([6]; 16 g ai/ha) | Johnsongrass plant response rating ([6]; 31 g ai/ha) | Dayflower, VA plant response rating ([8]; 16 g ai/ha) | Dayflower, VA plant response rating ([8]; 31 g ai/ha) | Dayflower, VA plant response rating ([8]; 62 g ai/ha) | Soybean plant response rating ([9]; 31 g ai/ha) | Panicum, Fall plant response rating ([10]; 16 g ai/ha) | Panicum, Fall plant response rating ([10]; 31 g ai/ha) | Panicum, Fall plant response rating ([10]; 62 g ai/ha) | Pigweed, Palmer plant response rating ([11]; 16 g ai/ha) | Pigweed, Palmer plant response rating ([11]; 31 g ai/ha) | Pigweed, Palmer plant response rating ([11]; 62 g ai/ha) | Morningglory plant response rating ([12]; 16 g ai/ha) | Morningglory plant response rating ([12]; 31 g ai/ha) | Barnyardgrass plant response rating ([13]; 16 g ai/ha, preemergence) | Barnyardgrass plant response rating ([13]; 31 g ai/ha, preemergence) | Plant response rating, Barnyardgrass ([13]; Preemergence, 62 g ai/ha) | Plant response rating, Barnyardgrass ([13]; preemergence, 125 g ai/ha)

N#Cc1cccc(Oc2ncc(F)cn2)c1-n1cc(I)cn1 [Compound 86]
35: Soybean plant response rating ([9]; 62 g ai/ha) | Panicum, Fall plant response rating ([10]; 31 g ai/ha)
30: Dayflower, VA plant response rating ([8]; 62 g ai/ha) | Morningglory plant response rating ([12]; 62 g ai/ha) | Plant response rating, Barnyardgrass ([13]; preemergence, 125 g ai/ha)
10: Plant response rating, Ryegrass, Italian ([7]; 125 g ai/ha) | Morningglory plant response rating ([12]; 31 g ai/ha)
75: Plant response rating, Morningglory [12]
0: Arrowleaf Sida plant response rating ([1]; 16 g ai/ha, preemergence) | Ragweed plant response rating ([3]; 16 g ai/ha) | Ragweed plant response rating ([3]; 31 g ai/ha) | Goosegrass plant response rating ([4]; 16 g ai/ha) | Goosegrass plant response rating ([4]; 31 g ai/ha) | Ryegrass, Italian plant response rating ([5]; 16 g ai/ha) | Ryegrass, Italian plant response rating ([5]; 31 g ai/ha) | Ryegrass, Italian plant response rating ([5]; 62 g ai/ha) | Johnsongrass plant response rating ([6]; 16 g ai/ha) | Johnsongrass plant response rating ([6]; 31 g ai/ha) | Dayflower, VA plant response rating ([8]; 16 g ai/ha) | Dayflower, VA plant response rating ([8]; 31 g ai/ha) | Soybean plant response rating ([9]; 16 g ai/ha) | Soybean plant response rating ([9]; 31 g ai/ha) | Panicum, Fall plant response rating ([10]; 16 g ai/ha) | Pigweed, Palmer plant response rating ([11]; 31 g ai/ha) | Morningglory plant response rating ([12]; 16 g ai/ha) | Barnyardgrass plant response rating ([13]; 16 g ai/ha, preemergence) | Barnyardgrass plant response rating ([13]; 31 g ai/ha, preemergence) | Plant response rating, Barnyardgrass ([13]; Preemergence, 62 g ai/ha)
100: Plant response rating, Arrowleaf Sida ([1]; preemergence, 125 g ai/ha) | Plant response rating, Galium [2, 14] | Plant response rating, Galium [2, 15] | Plant response rating, Panicum, Fall [10] | Pigweed, Palmer plant response rating ([11]; 62 g ai/ha) | Plant response rating, Pigweed, Palmer [11]
65: Johnsongrass plant response rating ([6]; 62 g ai/ha) | Plant response rating, Johnsongrass [6] | Plant response rating, Dayflower, VA [8]
20: Plant response rating, Ragweed [3]
50: Goosegrass plant response rating ([4]; 62 g ai/ha) | Plant response rating, Goosegrass [4]
5: Arrowleaf Sida plant response rating ([1]; 31 g ai/ha, preemergence) | Ragweed plant response rating ([3]; 62 g ai/ha) | Plant response rating, Ryegrass, Italian [5]
90: Panicum, Fall plant response rating ([10]; 62 g ai/ha)
60: Plant response rating, Arrowleaf Sida ([1]; Preemergence, 62 g ai/ha) | Ryegrass, Italian plant response rating [7] | Plant response rating, Soybean [9]
